Series [1] can be described thus: Rearrangement in simulated gastric fluid or equimolar aqueous HCl (HPLC). The series is classed as physicochemical. The note with it: 0.08 M aq. HCl, 1 g/L NaCl and 1.6 g/L pepsin, 6 h at 37 °C.
Series [2] in a line: Kinetics of acid-catalysed rearrangement of 2 to 4 in aqueous HCl (HPLC). The note with it: for half-life at 50 µg/mL: 6 M aqueous HCl, Half life of rearrangement, initial concentration 50 µg/mL, n = 3.
Experimental: We propose that this reaction proceeds via lactam hydrolysis and subsequent condensation of the resulting primary amine with the exocyclic carbonyl group (Fig. 4B).
The conversion is calculated normalized to the maximum area under the curve of 4. […] B: Reaction scheme showing the proposed reactive intermediate. Oxygens in the carboxylic acid group are indistinguisable, but for reasons of clarity only one of them is coloured like the hydrolyzing water.
The activation energy (EA) was determined from linear regression based on the linearized Arrhenius equation (ln(k) = − EA/(RT) + ln(A)).
Series [3] in a line: Thermal stability of pure crystalline solid. It is filed as physicochemical. The settings on record: 100 °C for 12 h.
The subject of another series is CHO-K1 cells. Nature of the series: MTT cytotoxicity assay toward CHO cell line. The settings on record: 72 h exposure, whole concentration range, up to 1 mM.
Another series has as its target T1, human mAChR M4 (Homo sapiens, UniProt P08173).
T1 construct: host or cells: CHO-K1 (stably transfected), membrane preparation
T1 sequence (P08173 1-479): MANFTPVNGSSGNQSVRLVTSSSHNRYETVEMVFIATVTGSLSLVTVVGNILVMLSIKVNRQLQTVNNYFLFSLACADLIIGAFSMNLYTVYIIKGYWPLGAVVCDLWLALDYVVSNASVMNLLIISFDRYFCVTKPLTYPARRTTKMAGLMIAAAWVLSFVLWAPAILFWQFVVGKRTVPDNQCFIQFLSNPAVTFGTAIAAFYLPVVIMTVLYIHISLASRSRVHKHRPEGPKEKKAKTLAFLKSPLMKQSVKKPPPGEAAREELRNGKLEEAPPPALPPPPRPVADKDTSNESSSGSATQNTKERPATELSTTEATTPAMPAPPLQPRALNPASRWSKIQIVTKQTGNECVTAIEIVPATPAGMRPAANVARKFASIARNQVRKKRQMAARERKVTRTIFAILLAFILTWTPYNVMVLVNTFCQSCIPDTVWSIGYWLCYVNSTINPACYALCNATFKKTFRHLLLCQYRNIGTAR
Nature of the series: Competitive [3H]NMS radioligand binding assay on CHO cell membranes, mAChR M4. The note with it: CHO cell membranes with human receptor, 1.5 h at 20 °C, this work. The procedure: (§1) Filter bound decay rate is normalized to 1 for binding in absence of competitor and to 0 for nonspecific binding.
(§2) Membrane preparations of mAChR M1, M2, M3, M4 or M5 receptors were produced from the respective cell line as follows. The medium of a confluent T175 cell culture flask was poured off and the cell layer was washed with ice-cold PBS. Cells were scraped off and suspended in 2 mL 10 mM Tris/HCl, 1 mM EDTA buffer (pH 7.4) and 200 µL protease inhibitor cocktail. A cell homogenate obtained from passing the cell suspension through a G29 needle was centrifuged (10 min, 1,000 g, 4 °C).
(§3) A competitive radioligand binding assay using [^3H]NMS and variable concentrations of test compounds was performed in assay buffer (50 mM Tris/HCl, 10 mM MgCl2, 1 mM EDTA). Polypropylene tubes were filled with 5 µL aqueous solution of the test compounds, 50 µL radioligand solution in assay buffer and 445 µL membrane suspension in assay buffer (diluted approx. 1:100), shaken and incubated for 1.5 h at 20 °C. Nonspecific binding of the radioligand was determined by using 5 µL of a 1 µM scopolamine hydrobromide solution. The concentration of the radioligand solution was chosen as 2 nM, 3 nM, 8 nM, 2 nM and 10 nM for M1-M5, respectively. […] Specific binding was calculated as total binding minus nonspecific binding. To delineate the IC50 value, specific binding was plotted against the logarithm of the test compound concentration and fitted by a variable slope logistic regression.
(§4) Table S3: HPLC parameters of the methods for the analysis of pirenzepine, telenzepine and their rearrangement products. LOD = limit of
(§5) detection, LOL = limit of linearityi
(§6) Stably transfected CHO-K1 cells containing human muscarinic receptors M1-M5 were purchased from Missouri
(§7) University of Science and Technology cDNA Resource Center (Cell Catalog#: CEM1000000, CEM2000000,
(§8) Limited) supplemented with 10% FBS (Gibco, Life Tec hnologies Limited) and 250 µg/mL Geneticin® (G418, Thermo
(§9) Fisher) at 37 °C and 5% CO2 in a cell incubator. Cells were passaged using Gibco Trypsin -EDTA (0.05%). A solution of […]

The next series concerns the target T2, human mAChR M2 (Homo sapiens, UniProt P08172).
T2 construct: host or cells: CHO-K1 (stably transfected), membrane preparation
T2 sequence (P08172 1-466): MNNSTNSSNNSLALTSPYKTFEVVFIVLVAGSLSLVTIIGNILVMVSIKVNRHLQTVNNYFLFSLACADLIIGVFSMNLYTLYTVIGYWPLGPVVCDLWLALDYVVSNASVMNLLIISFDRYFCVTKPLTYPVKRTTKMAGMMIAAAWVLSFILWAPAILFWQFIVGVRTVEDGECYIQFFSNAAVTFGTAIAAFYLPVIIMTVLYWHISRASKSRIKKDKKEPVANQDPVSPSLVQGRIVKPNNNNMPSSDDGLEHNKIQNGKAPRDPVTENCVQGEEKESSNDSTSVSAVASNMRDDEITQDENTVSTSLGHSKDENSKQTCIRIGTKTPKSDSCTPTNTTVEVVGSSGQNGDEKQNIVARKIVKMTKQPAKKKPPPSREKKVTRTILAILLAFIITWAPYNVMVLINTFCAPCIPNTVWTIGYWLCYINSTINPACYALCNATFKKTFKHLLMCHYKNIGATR
Nature of the series: Competitive [3H]NMS radioligand binding assay on CHO cell membranes, mAChR M2. The note with it: CHO cell membranes with human receptor, 1.5 h at 20 °C, this work. The procedure: as §1, §2, §3, §4, §5, §6, §7, §8, §9

The next series deals with T3, human mAChR M1 (Homo sapiens, UniProt P11229).
T3 construct: host or cells: CHO-K1 (stably transfected), membrane preparation
T3 sequence (P11229 1-460): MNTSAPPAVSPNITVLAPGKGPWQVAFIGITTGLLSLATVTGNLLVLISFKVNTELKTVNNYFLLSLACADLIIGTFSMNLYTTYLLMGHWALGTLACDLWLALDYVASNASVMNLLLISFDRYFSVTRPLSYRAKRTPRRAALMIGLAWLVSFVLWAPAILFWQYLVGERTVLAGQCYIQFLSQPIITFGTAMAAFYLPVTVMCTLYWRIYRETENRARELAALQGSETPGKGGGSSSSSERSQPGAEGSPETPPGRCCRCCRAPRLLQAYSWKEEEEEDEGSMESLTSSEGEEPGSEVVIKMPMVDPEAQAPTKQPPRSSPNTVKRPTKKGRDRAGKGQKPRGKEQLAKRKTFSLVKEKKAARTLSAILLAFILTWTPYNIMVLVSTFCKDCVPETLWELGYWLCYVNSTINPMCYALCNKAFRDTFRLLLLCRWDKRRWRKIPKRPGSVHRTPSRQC
Nature of the series: Competitive [3H]NMS radioligand binding assay on CHO cell membranes, mAChR M1. The settings on record: for Ki: [3H]NMS 0.2 nM, CHO cell membranes with human receptor, 1.5 h at 20 °C, this work. The procedure: as §1, §2
as §3, with “solution.” for “solution. The concentration of the radioligand solution was chosen as 2 nM, 3 nM, 8 nM, 2 nM and 10 nM for M1-M5, respectively.”
as §4, §5, §6, §7, §8
Fisher) at 37 °C and 5% CO2 in a cell incubator. Cells were passaged using Gibco Trypsin -EDTA (0.05%). A solution of
P2714-1BTL, Sigma-Aldrich in 10 mL water was used as protease inhibitor cocktail.

The target in a further series is T4, human mAChR M3 (Homo sapiens, UniProt P20309).
T4 construct: host or cells: CHO-K1 (stably transfected), membrane preparation
T4 sequence (P20309 whole entry): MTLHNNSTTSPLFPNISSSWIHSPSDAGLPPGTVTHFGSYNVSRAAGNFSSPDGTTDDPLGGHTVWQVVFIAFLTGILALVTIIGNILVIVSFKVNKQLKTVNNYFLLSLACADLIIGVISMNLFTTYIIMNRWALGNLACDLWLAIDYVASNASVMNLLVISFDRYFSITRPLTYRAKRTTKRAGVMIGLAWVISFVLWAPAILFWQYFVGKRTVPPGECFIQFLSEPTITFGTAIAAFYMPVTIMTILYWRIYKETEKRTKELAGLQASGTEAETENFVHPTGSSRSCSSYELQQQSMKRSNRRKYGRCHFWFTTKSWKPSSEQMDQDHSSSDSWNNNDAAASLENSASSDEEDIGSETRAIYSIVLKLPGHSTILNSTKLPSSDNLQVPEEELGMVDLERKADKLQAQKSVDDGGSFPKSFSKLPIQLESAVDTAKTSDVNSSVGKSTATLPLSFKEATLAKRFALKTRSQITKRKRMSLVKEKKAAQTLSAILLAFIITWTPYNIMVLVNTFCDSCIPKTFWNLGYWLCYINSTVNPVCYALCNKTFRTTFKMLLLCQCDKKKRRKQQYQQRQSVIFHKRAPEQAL
The experiment in a line: Competitive [3H]NMS radioligand binding assay on CHO cell membranes, mAChR M3. The settings on record: CHO cell membranes with human receptor, 1.5 h at 20 °C, this work. How it is done:
as §1, §2, §3, §4, §5, §6, §7, §8, §9

The target of another series is T5, human mAChR M5 (Homo sapiens, UniProt P08912).
T5 construct: host or cells: CHO-K1 (stably transfected), membrane preparation
T5 sequence (P08912 1-532): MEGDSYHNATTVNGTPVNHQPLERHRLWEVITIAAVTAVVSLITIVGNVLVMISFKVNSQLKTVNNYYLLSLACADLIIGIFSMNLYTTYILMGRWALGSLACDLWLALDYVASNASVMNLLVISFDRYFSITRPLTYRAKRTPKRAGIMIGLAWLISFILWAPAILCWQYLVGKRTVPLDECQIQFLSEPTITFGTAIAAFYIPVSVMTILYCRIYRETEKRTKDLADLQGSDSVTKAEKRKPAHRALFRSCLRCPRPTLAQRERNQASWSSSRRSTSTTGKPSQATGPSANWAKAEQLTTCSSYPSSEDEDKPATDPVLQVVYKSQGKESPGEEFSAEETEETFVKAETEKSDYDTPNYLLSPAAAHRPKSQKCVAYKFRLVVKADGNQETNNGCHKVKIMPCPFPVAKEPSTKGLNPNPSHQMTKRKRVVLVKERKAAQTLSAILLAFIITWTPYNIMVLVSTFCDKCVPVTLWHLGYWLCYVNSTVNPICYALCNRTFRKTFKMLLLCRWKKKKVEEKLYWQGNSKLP
The experiment in a line: Competitive [3H]NMS radioligand binding assay on CHO cell membranes, mAChR M5. The note with it: CHO cell membranes with human receptor, 1.5 h at 20 °C, this work. The procedure:
as §1, §2, §3, §4, §5, §6, §7, §8, §9

A further series has as its target mAChR M4. The note with it: read-out: Ki mAChR M4; 90 min at 37 °C, NG108-15 cells; cited from earlier work.
The target in a further series is mAChR M1. The note with it: read-out: Ki mAChR M1; 90 min at 37 °C, transfected A9L cells; cited from earlier work.
Another series concerns the target mAChR M2. The settings on record: read-out: Ki mAChR M2; 90 min at 37 °C, membranes from rat heart tissue; cited from earlier work.
A further series addresses mAChR M3. On the set-up: method as in PMID 2066986. The note with it: 90 min at 37 °C, transfected A9L cells; cited from earlier work.

“Also recorded” adds a separate entry of the source. Where a name gives a salt, the structure may show the parent alone.

Experimental for CHO-K1 cells: Cytotoxicity toward CHO Cell Line
Cytotoxicity was determined by means of a colorimetric microculture assay (MTT assay). For this purpose, CHO-K1
cells were harvested from culture flasks by trypsinization and seeded into 96-well microculture plates (Corning) in
densities of 4,000 viable cells/well. After a 24 h preincubation, cells were exposed to dilutions of the test compounds
in complete culture medium (200 µL/well) for 72 h. At the end of the exposure period, the compound solutions were
and MTT solution (MTT reagent in PBS, 20 µL/well, 5 mg/mL). After incubation for 4 h, the medium was removed, and
the formazan product was solved in DMSO (150 µL/well). Optical densities at 490 nm were measured with a microplate
reader (BioTek Synergy HTX multi-mode reader) using a reference wavelength of 690 nm to correct for unspecific
absorption. The quantity of viable cells was expressed in terms of T/C values by comparison to untreated controls.
Evaluations were based on means from at least three independent experiments, each comprising triplicates for each

Turning to `CN1CCN(CC(=O)N2c3ccccc3C(=O)Nc3cccnc32)CC1` [Compound 2, Pirenzepine dihydrochloride], the “Isomerization of 2 to 4 in simulated gastric fluid” value in [1] was “neither simulated gastric fluid (0.08 M aq. HCl, 1 g/L NaCl and 1.6 g/L pepsin) nor equimolar aqueous HCl solution caused detectable isomerization”. For the same compound, the “Formation of 4 from 2” value in series [2] (0.1 M aqueous HCl at 37 °C, 55 °C or 75 °C overnight) was below 1%. The “Activation energy of the rearrangement” value in [2] (6 M HCl, from slope of Arrhenius plot) was found to be 19.9 ± 0.454 kcal/mol. Besides, the half-life at 50 µg/mL was found to be 13.8 ± 0.5 h in [2] (6 M HCl, 37 °C); 1.95 ± 0.267 h in [2] (6 M HCl, 55 °C); 0.417 ± 0.0333 h in series [2] (6 M HCl, 75 °C). In series [2] (strong excess of aqueous HCl (6 M), pseudo first order kinetic), the “Conversion of 2 to 4” value is recorded as “quantitative conversion”. Besides, the “Formation of 4 on heating the solid” value in series [3] is listed as “did not result in formation of 4 in detectable amounts”. The “Effect on cell viability (MTT assay)” value with CHO-K1 cells is given as “No cytotoxic effect”.

In the case of `CN1CCN(Cc2nc3cccnc3n2-c2ccccc2C(=O)O)CC1.Cl.Cl` [Compound 4, 2-(2-((4-methylpiperazin-1-yl)methyl)-3H-imidazo[4,5-b]pyridin-3-yl)benzoic acid dihydrochloride], the Ki came to 1200 ± 200 nM at human mAChR M4; 47000 ± 19000 nM at human mAChR M2; 600 ± 20 nM on human mAChR M1; 7000 ± 2000 nM at human mAChR M3; 360 ± 20 nM on human mAChR M5. Also, in the series with CHO-K1 cells, the “Effect on cell viability (MTT assay)” value is “No cytotoxic effect; also recorded: without measurable effect on cell viability”.

`Cc1scc(C(=O)O)c1-n1c(CN2CCN(C)CC2)nc2ccccc21` [Compound 5, 5-methyl-4-(2-((4-methylpiperazin-1-yl)methyl)-1H-benzo[d]imidazol-1-yl)thiophene-3-carboxylic acid]: the Ki turned out to be 2000 ± 400 nM on human mAChR M4; 10600 ± 1500 nM at human mAChR M2; 1400 ± 300 nM at human mAChR M1; 8000 ± 3000 nM on human mAChR M3; 4100 ± 200 nM on human mAChR M5. For the same compound, the “Effect on cell viability (MTT assay)” value with CHO-K1 cells is reported as “No cytotoxic effect; also recorded: without measurable effect on cell viability”.

As to `Cc1scc2c1N(C(=O)CN1CCN(C)CC1)c1ccccc1NC2=O` [telenzepine 2HCl, Telenzepine dihydrochloride], the Ki at mAChR M4 was 17.4 nM; at human mAChR M4 it was 29 ± 16 nM; at mAChR M1, 1.8 nM; on human mAChR M2, 26 ± 5 nM; on mAChR M2 it was 50.3 nM; at mAChR M3, 6.9 nM. For the same compound, the values for the Ki at human mAChR M1, at human mAChR M3 and at human mAChR M5 were 1.8 ± 0.8 nM, 12 ± 2 nM and 16 ± 9 nM, respectively. Also, the “Effect on cell viability (MTT assay)” value in the series with CHO-K1 cells was “No cytotoxic effect”. In addition, the “Loss of affinity towards M1 on rearrangement (affinity constant of rearranged product vs parent)” value on human mAChR M1 (rearranged product (4 or 5) versus parent drug) was found to be 780 fold.

These data come from article PMC8642400, “Unexpected scaffold rearrangement product of pirenzepine found in commercial samples” (Scientific Reports, 2021).
